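Method: 48-hour compound exposure of cells in 96-well plates, five concentrations, linear interpolation of endpoints. Abbreviation: GI50, concentration required for 50% inhibition of growth. TGI: total growth inhibition.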
What was measured:
Assay in all cases: inhibition of tumour cell growth, NCI panel, 48 h
NCI-H23 lung = system: NCI-H23 lung
SF-268 CNS = system: SF-268 CNS
UACC-257 melanoma = system: UACC-257 melanoma
HOP-62 NSCLC = system: HOP-62 NSCLC
LOX IMVI melanoma = system: LOX IMVI melanoma
HCT-116 colon = system: HCT-116 colon
UACC-62 melanoma = system: UACC-62 melanoma
A498 renal = system: A498 renal
IGROV1 ovarian = system: IGROV1 ovarian
MDA-MB-435 = system: MDA-MB-435

SMILES | TGI (NCI-H23 lung) | TGI (SF-268 CNS) | TGI (UACC-257 melanoma) | TGI (HOP-62 NSCLC) | TGI (LOX IMVI melanoma) | TGI (HCT-116 colon) | TGI (UACC-62 melanoma) | TGI (A498 renal) | TGI (IGROV1 ovarian) | TGI (MDA-MB-435) | GI50 (NCI-H23 lung) | GI50 (SF-268 CNS) | GI50 (UACC-62 melanoma) | GI50 (A498 renal) | GI50 (UACC-257 melanoma) | GI50 (HOP-62 NSCLC) | GI50 (LOX IMVI melanoma) | GI50 (MDA-MB-435) | GI50 (HCT-116 colon) | GI50 (IGROV1 ovarian)
COc1ccc(CNc2cnc3ccc(N)cc3n2)cc1 | > 100 µM | > 100 µM | > 100 µM | > 100 µM | > 100 µM | 11.7 µM |  |  |  |  |  |  |  |  |  |  |  |  |  | 
COC(=O)CC(=O)OSc1ccccc1 | 82.9 µM |  | 87.7 µM | 53.4 µM | 26.9 µM | 26.9 µM | 29.5 µM | 65 µM | 20.2 µM |  |  |  |  |  |  |  |  |  |  | 
Cc1ccc2c(c1C)C(=O)C1(Cc3cc4c(cc3C1=O)CCC4)C2 (stereo unspecified) | > 100 µM | > 100 µM | > 100 µM |  |  | > 100 µM | > 100 µM | > 100 µM | > 100 µM | > 100 µM |  |  |  |  |  |  |  |  |  | 
OCc1cn(Cc2ccccc2)c2ccccc12 | 31 µM | 40.2 µM |  | > 100 µM | > 45.3 µM | > 26.3 µM | 4.98 µM |  | 2.09 µM | > 64.7 µM |  |  |  |  |  |  |  |  |  | 
O=c1[nH]c(NCc2ccncc2)nc2nc[nH]c12 | > 100 µM | > 100 µM | > 100 µM | > 100 µM | > 100 µM | > 100 µM | > 100 µM |  | > 100 µM | > 100 µM |  |  |  |  |  |  |  |  |  | 
Cc1ccccc1-c1nc2c(N)nc(N)nc2nc1N | > 100 µM | > 100 µM | > 100 µM | > 100 µM | > 100 µM | > 100 µM | > 100 µM |  | > 100 µM | > 100 µM |  |  |  |  |  |  |  |  |  | 
Cc1nnc2n(c1=O)CCCN2C | > 100 µM | > 100 µM |  | > 100 µM | > 100 µM | > 100 µM | > 100 µM |  | > 100 µM | > 100 µM |  |  |  |  |  |  |  |  |  | 
c1ccc2c(c1)SCCCS2 | > 100 µM | > 100 µM | > 100 µM | > 100 µM | > 100 µM | > 100 µM | > 100 µM |  | > 100 µM | > 100 µM |  |  |  |  |  |  |  |  |  | 
COC(=O)CNC(=O)C(CSC(=O)OCC1c2ccccc2-c2ccccc21)NC(=O)CCC(NC(=O)OCC1c2ccccc2-c2ccccc21)C(=O)OC (stereo unspecified) | 37 µM | 51.9 µM | > 100 µM | 40.2 µM | 21.1 µM | 32.5 µM |  |  | 31.6 µM | 67.4 µM |  |  |  |  |  |  |  |  |  | 
COC(=O)[C@]1(C)CCC[C@@]2(C)C1CC[C@]13C=C(C(C)C)[C@H](CC21)CC3(Cl)C#N (stereo partly specified) | > 100 µM | > 100 µM | > 100 µM | > 100 µM |  | > 100 µM | > 100 µM | > 100 µM | > 100 µM | > 100 µM |  |  |  |  |  |  |  |  |  | 
O=[N+]([O-])c1ccc(C[P+]2(c3ccccc3)CCCCC2)cc1 | > 100 µM |  | > 100 µM | > 100 µM | > 100 µM | > 100 µM | > 100 µM | > 100 µM | > 100 µM |  |  |  |  |  |  |  |  |  |  | 
COc1ccc(C)cc1N1C(=O)C2ON(Cc3ccc(CC(N)=O)cc3)C(c3c4ccccc4c(Cl)c4ccccc34)C2C1=O (stereo unspecified) | 96.4 µM | 82.3 µM | 33.2 µM | 93.7 µM | 54.7 µM | 32.7 µM | 45.2 µM |  | > 100 µM | 62.1 µM |  |  |  |  |  |  |  |  |  | 
Cc1ccc(-c2cc(-c3ccco3)c(C#N)c(=S)[nH]2)cc1 | 97.8 µM | > 100 µM |  | > 100 µM | > 100 µM | > 100 µM | > 100 µM | > 100 µM | > 100 µM | 65.1 µM |  |  |  |  |  |  |  |  |  | 
COc1cc2ccc3c4cc(OC)c(OC)cc4c[n+](C)c3c2cc1O | > 100 µM | 7.23 µM | > 100 µM | > 100 µM | > 100 µM | > 100 µM | > 100 µM | > 48.1 µM | > 100 µM |  |  |  |  |  |  |  |  |  |  | 
Nc1ncnc2c1nnn2C1C=CC(CP(=O)(O)O)C1 (stereo unspecified) | > 100 µM | > 100 µM | > 100 µM | > 100 µM | > 100 µM | > 100 µM | > 100 µM |  | > 100 µM |  |  |  |  |  |  |  |  |  |  | 
CN(C)C(=O)C(F)(F)C(c1ccc(F)cc1)C1C(=O)N(C)C(=O)N(C)C1=O (stereo unspecified) | > 100 µM | > 100 µM | > 100 µM | > 100 µM | > 100 µM | > 100 µM | > 100 µM | > 100 µM |  | > 100 µM |  |  |  |  |  |  |  |  |  | 
CC1=NN(C(=O)Cc2ccccc2)C(=O)/C1=C\c1ccc(O)cc1 | > 100 µM | > 100 µM | > 100 µM | > 100 µM | > 100 µM | > 100 µM | > 100 µM | > 100 µM | > 100 µM |  |  |  |  |  |  |  |  |  |  | 

SMILES | TGI (NCI-H23 lung) | TGI (SF-268 CNS) | TGI (UACC-257 melanoma) | TGI (HOP-62 NSCLC) | TGI (LOX IMVI melanoma) | TGI (HCT-116 colon) | TGI (UACC-62 melanoma) | TGI (A498 renal) | TGI (IGROV1 ovarian) | TGI (MDA-MB-435) | GI50 (NCI-H23 lung) | GI50 (SF-268 CNS) | GI50 (UACC-62 melanoma) | GI50 (A498 renal) | GI50 (UACC-257 melanoma) | GI50 (HOP-62 NSCLC) | GI50 (LOX IMVI melanoma) | GI50 (MDA-MB-435) | GI50 (HCT-116 colon) | GI50 (IGROV1 ovarian)
CCCCCCCCCCCCCCCCCCOc1ccccc1CC(=O)NCC[N+]1(C)CCOCC1 | 14.2 µM | 31.2 µM | 35.3 µM | 26.8 µM | 42.4 µM | > 100 µM | 30.7 µM | 44 µM |  | 32.9 µM | 3.03 µM | 2.77 µM | 4.31 µM | 13.4 µM | 18.9 µM | 4.01 µM | 3.51 µM | 7.85 µM | 4.71 µM | 
Clc1cccc(-c2sc(-c3cccs3)cc2Cc2cccs2)c1 | > 10 µM | > 10 µM | > 10 µM | > 10 µM | > 10 µM | > 10 µM | > 10 µM |  | > 10 µM | > 10 µM |  |  |  |  |  |  |  |  |  | 
CN(C)CCNC(=O)c1cccc2c1Nc1ccccc1S2 | 28.5 µM | 31.7 µM | 27 µM | 33.4 µM | 26.2 µM | 25 µM | 28.4 µM | 24.5 µM | 24.1 µM |  |  |  |  |  |  |  |  |  |  | 
COc1ccc(N=Nc2c(-c3c(OC)cc4occc4c3OC)[nH]c(=O)c(C#N)c2C)cc1 | > 100 µM | > 100 µM | > 100 µM | > 100 µM | > 100 µM | > 100 µM | > 100 µM |  | > 100 µM | > 100 µM |  |  |  |  |  |  |  |  |  | 
CSCC[C@@H](NC(=O)[C@H](CC(C)C)NC(=O)C(Cc1cnc[nH]1)NC(=O)CNC(=O)[C@@H](NC(=O)[C@H](C)NC(=O)[C@H](Cc1c[nH]c2ccccc12)NC(=O)[C@H](CCC(N)=O)NC(=O)[C@@H](N)CC(N)=O)C(C)C)C(N)=O (stereo partly specified) | > 100 µM | > 100 µM | > 100 µM | > 100 µM | > 100 µM | > 100 µM | > 100 µM | > 100 µM | > 100 µM |  |  |  |  |  |  |  |  |  |  | 
N#CNC(N)=NCc1ccccc1 | > 100 µM | > 100 µM | > 100 µM | > 100 µM | > 100 µM | > 100 µM |  | > 100 µM | > 100 µM |  |  |  |  |  |  |  |  |  |  | 
CC1CC(N2CCOCC2)=Nc2ccccc2N1C (stereo unspecified) | > 100 µM | > 100 µM | > 100 µM | > 100 µM |  | > 100 µM | > 100 µM | > 100 µM | > 100 µM | > 100 µM |  |  |  |  |  |  |  |  |  | 
Cc1cc([N+](=O)[O-])c(C)c2c1[nH]c1ccc(Cl)cc12 | > 100 µM | > 100 µM | > 100 µM | > 100 µM | > 100 µM | > 100 µM |  |  |  |  |  |  |  |  |  |  |  |  |  | 
Cn1nc(-c2ccc(S(=O)(=O)/N=C(\NN)Nc3ccc(Cl)cc3)s2)cc1C(F)(F)F | 40.9 µM | 32.6 µM | 34 µM | 32.3 µM | 34.2 µM | 29.2 µM | 31.1 µM | 31 µM | 36 µM |  |  |  |  |  |  |  |  |  |  | 
COc1cc2nc(-c3ccc(Cl)cc3)cc(OCCCN3CCOCC3)c2cc1OC |  |  |  |  | 0.593 µM | > 100 µM | 6.35 µM | 4.02 µM | > 100 µM |  |  |  | 2.26 µM | 1.59 µM |  |  | 0.217 µM |  | 1.59 µM | 0.99 µM
COc1cc(C)c(CC/C(C)=C/Cc2cc(O)ccc2O)c(C)c1C | > 25 µM | > 25 µM |  |  |  | > 25 µM |  | > 25 µM | > 25 µM |  |  |  |  |  |  |  |  |  |  | 
COC(=O)/C=C(\C)CC/C=C(\C)CCC1OC1(C)C (stereo unspecified) | 24.2 µM |  | 23.3 µM | 26.7 µM | 11 µM | 24.3 µM | 19.8 µM | 28.6 µM | 26.9 µM |  |  |  |  |  |  |  |  |  |  | 
Cc1nc(N)c(N2CCN(C#N)CC2)c(=O)[nH]1 | > 100 µM | > 100 µM | > 100 µM | > 100 µM | > 100 µM | > 100 µM |  | > 100 µM |  | > 100 µM |  |  |  |  |  |  |  |  |  | 
CCOC(=O)C1C(c2ccc(Cl)cc2Cl)NC(c2ccc(C)cc2)C(C(=O)OC)S1(=O)=O (stereo unspecified) | > 100 µM | > 100 µM | > 100 µM | > 100 µM | > 100 µM |  | > 100 µM | > 100 µM | > 100 µM |  |  |  |  |  |  |  |  |  |  | 
N#Cc1c(-c2ccc([N+](=O)[O-])cc2)cc(-c2ccc(Nc3ccnc4cc(Cl)ccc34)cc2)[nH]c1=O | > 100 µM | > 100 µM |  | > 100 µM | > 100 µM | > 100 µM | > 100 µM | > 100 µM | > 100 µM | > 100 µM |  |  |  |  |  |  |  |  |  | 
c1ccc(-c2c(-c3ccccc3)[n+](Cc3ccc4ccccc4c3)c(-c3ccc(-c4nc5ccccc5s4)cc3)n2Cc2ccc3ccccc3c2)cc1 | 0.759 µM |  |  |  |  |  | 1.25 µM | 0.542 µM | 0.408 µM | 0.557 µM | 0.0933 µM |  | 0.236 µM | 0.156 µM |  |  |  | 0.209 µM |  | 0.121 µM
CC(=O)NNc1nc(C)c(C(=O)NNC(=O)C(=O)Nc2ccc([N+](=O)[O-])cc2[N+](=O)[O-])s1 | > 100 µM | > 100 µM | > 100 µM | > 100 µM | > 100 µM | > 100 µM | > 100 µM | > 100 µM | > 100 µM |  |  |  |  |  |  |  |  |  |  | 

From PubChem BioAssay (NCI)
